Assay results taken from patent US11986471B2, “Compounds and methods of use” (Tango Therapeutics, Inc., priority 2018, dated 2024).

What was measured:
PRMT5 [1] = target: T1, PRMT5 (Homo sapiens, UniProt O14744); experiment: PRMT5 IC50 assay in the presence of MTA as cofactor; assay type: biochemical; details: for IC50: PRMT5, MTA as cofactor
T1 construct: purchased Viva (custom protein)
In short: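 IC50 values were measured against human PRMT5 with SAM, with MTA, or with no cofactor. Ki was derived from IC50 as Ki=IC50/1.5 with SAM and Ki=IC50/13.5 with MTA, and the Ki(SAM)/Ki(MTA) ratio was then taken.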

HAP1 MTAP-intact = experiment: SDMA in-cell western assay, HAP1 MTAP-intact cell line; assay type: cell-based; details: Homo sapiens
In short: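 IC50 values come from SDMA in-cell western staining of HAP1 cells. The MTAP-intact line carries endogenous MTAP, while its MTAP-deleted counterpart lacks MTAP entirely. A selectivity ratio of at least 3 fold marks a compound as MTAP-selective.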

PRMT5 [2] = target: T1, PRMT5; experiment: PRMT5 IC50 assay with no cofactor; assay type: biochemical
In short: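 Values reflect IC50 (μM) on human PRMT5 under three cofactor states. Selectivity is derived as the quotient of SAM-state Ki over MTA-state Ki, with each Ki obtained from its IC50.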

PRMT5 [3] = target: T1, PRMT5; experiment: PRMT5 IC50 assay in the presence of SAM as cofactor; assay type: biochemical
In short: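 Three cofactor conditions are run: SAM-bound, MTA-bound and cofactor-free enzyme. IC50 is read from each; for the SAM and MTA arms it is divided by 1.5 and 13.5 respectively to give Ki.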

HAP1 MTAP-deleted = experiment: SDMA in-cell western assay, HAP1 MTAP-deleted cell line; assay type: cell-based; details: for IC50: Homo sapiens, HAP1 MTAP-deleted cell line; for MTAP Intact/Deleted Ratio: IC50 ratio HAP1 MTAP-intact / HAP1 MTAP-deleted
In short: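 Readout is cellular SDMA signal by in-cell western, with IC50 values derived from it. The cells are MTAP-null HAP1, matched to an isogenic MTAP-intact HAP1 line.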

[4] = ratio between Ki in the presence of SAM and Ki in the presence of MTA
[5] = ratio between the Ki in the presence of SAM and the Ki in the presence of MTA

T1 sequence (O14744 whole entry): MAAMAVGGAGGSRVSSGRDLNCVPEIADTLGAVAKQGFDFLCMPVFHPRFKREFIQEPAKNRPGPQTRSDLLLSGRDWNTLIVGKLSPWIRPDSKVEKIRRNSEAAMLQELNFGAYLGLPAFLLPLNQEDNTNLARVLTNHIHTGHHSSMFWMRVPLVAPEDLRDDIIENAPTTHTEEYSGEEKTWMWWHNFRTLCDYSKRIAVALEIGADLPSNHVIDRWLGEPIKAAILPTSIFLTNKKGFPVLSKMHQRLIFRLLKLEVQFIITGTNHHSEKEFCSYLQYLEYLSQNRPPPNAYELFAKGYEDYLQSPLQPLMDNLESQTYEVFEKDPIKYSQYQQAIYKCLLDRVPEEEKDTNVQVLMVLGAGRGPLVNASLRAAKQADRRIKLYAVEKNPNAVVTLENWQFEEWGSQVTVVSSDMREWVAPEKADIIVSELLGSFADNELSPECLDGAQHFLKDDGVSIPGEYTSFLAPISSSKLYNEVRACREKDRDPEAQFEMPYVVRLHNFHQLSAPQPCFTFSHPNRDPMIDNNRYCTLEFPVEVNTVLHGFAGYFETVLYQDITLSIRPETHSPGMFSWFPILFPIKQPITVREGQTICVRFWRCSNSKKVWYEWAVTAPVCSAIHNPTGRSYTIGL
T1 sequence (Q9BQA1 whole entry partner): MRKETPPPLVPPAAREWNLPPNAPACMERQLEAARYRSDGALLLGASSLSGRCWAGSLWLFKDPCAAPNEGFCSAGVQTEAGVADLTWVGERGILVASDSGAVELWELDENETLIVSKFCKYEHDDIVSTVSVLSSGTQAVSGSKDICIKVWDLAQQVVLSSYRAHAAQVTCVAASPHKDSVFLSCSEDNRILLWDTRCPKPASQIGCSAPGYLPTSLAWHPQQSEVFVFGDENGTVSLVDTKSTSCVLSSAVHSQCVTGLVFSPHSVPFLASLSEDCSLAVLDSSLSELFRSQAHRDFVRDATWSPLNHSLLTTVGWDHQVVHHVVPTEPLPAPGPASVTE

Row | SMILES | IC50 (PRMT5 [1]) | SAM/MTA Ratio (PRMT5 [1]; [4]) | IC50 (HAP1 MTAP-intact) | IC50 (PRMT5 [2]; read-out: No Co-factor IC50) | IC50 (PRMT5 [3]) | IC50 (HAP1 MTAP-deleted) | MTAP Intact/Deleted Ratio (HAP1 MTAP-deleted) | IC50 (PRMT5 [2]) | SAM/MTA Ratio (PRMT5 [1]; [5])
1 | O=C(NC[C@H](O)CN1CCc2c(ccc(OCc3cnco3)c2Cl)C1)c1ccnc(NC2CCCC(F)(F)C2)c1 (some centres unmarked) [Compound 347] | 50 to 500 nM | A (a Ki ratio greater than or equal to 10 fold between the Ki in the presence of SAM and the Ki in the presence of MTA) | ≥ 10000 nM | ≥ 5000 nM | 50 to 500 nM | ≥ 10000 nM | C* (an IC50 ratio of less than 3 fold between the IC50 in the HAP1 MTAP-intact cell line and the HAP1 MTAP-deleted cell line) | – | –
2 | O=C(NC[C@H](O)CN1CCc2cc(OCc3cnco3)c(F)c(F)c2C1)c1ccnc(NC2CCC2)c1 [Compound 364, 2-(cyclobutylamino)-N-[(2S)-3-[7,8-difluoro-6-(oxazol-5-ylmethoxy)-3,4-dihydro-1H-isoquinolin-2-yl]-2-hydroxy-propyl]pyridine-4-carboxamide] | 50 to 500 nM | A (a Ki ratio greater than or equal to 10 fold between the Ki in the presence of SAM and the Ki in the presence of MTA) | ≥ 10000 nM | ≥ 5000 nM | 50 to 500 nM | 1000 to 10000 nM | C* (an IC50 ratio of less than 3 fold between the IC50 in the HAP1 MTAP-intact cell line and the HAP1 MTAP-deleted cell line) | – | –
3 | O=C(NC[C@H](O)CN1CCc2c(ccc(OCc3cnco3)c2Cl)C1)c1cccc(NC2CCC2)c1 [Compound 335, (S)—N-(3-(5-chloro-6-(oxazol-5-ylmethoxy)-3,4-dihydroisoquinolin-2(1H)-yl)-2-hydroxypropyl)-3-(cyclobutylamino)benzamide] | 500 to 5000 nM | A (a Ki ratio greater than or equal to 10 fold between the Ki in the presence of SAM and the Ki in the presence of MTA) | ≥ 10000 nM | ≥ 5000 nM | 500 to 5000 nM | ≥ 10000 nM | C* (an IC50 ratio of less than 3 fold between the IC50 in the HAP1 MTAP-intact cell line and the HAP1 MTAP-deleted cell line) | – | –
4 | CC(=O)N1CCC(Nc2cc(C(=O)NC[C@H](O)CN3CCc4c(C)c(OCc5ocnc5C)cc(F)c4C3)ncn2)CC1 [Compound 618, 6-[(1-acetyl-4-piperidyl)amino]-N-[(2S)-3-[8-fluoro-5-methyl-6-[(4-methyloxazol-5-yl)methoxy]-3,4-dihydro-1H-isoquinolin-2-yl]-2-hydroxy-propyl]pyrimidine-4-carboxamide] | 50 to 500 nM | – | ≥ 10000 nM | – | 50 to 500 nM | 1000 to 10000 nM | B* (an IC50 ratio greater than or equal to 3 fold but lower than 10 fold between the IC50 in the HAP1 MTAP-intact cell line and the HAP1 MTAP-deleted cell line) | 500 to 5000 nM | –
5 | Cc1c(OCc2cnco2)ccc2c1CCN(C[C@@H](O)CNC(=O)c1ccnc(NC3CCN(C(=O)C(C)C)CC3)c1)C2 [Compound 427] | 50 to 500 nM | – | ≥ 10000 nM | – | 50 to 500 nM | 1000 to 10000 nM | B* (an IC50 ratio greater than or equal to 3 fold but lower than 10 fold between the IC50 in the HAP1 MTAP-intact cell line and the HAP1 MTAP-deleted cell line) | 500 to 5000 nM | A (a Ki ratio greater than or equal to 10 fold between the Ki in the presence of SAM and the Ki in the presence of MTA)
6 | CC(C)CC(=O)N1CC(Nc2cc(C(=O)NC[C@H](O)CN3CCc4cc(OCc5cnco5)ccc4C3)ccn2)C1 [Compound 474, N-[(2S)-2-hydroxy-3-[6-(oxazol-5-ylmethoxy)-3,4-dihydro-1H-isoquinolin-2-yl]propyl]-2-[[1-(3-methylbutanoyl)azetidin-3-yl]amino]pyridine-4-carboxamide] | 50 to 500 nM | – | 1000 to 10000 nM | – | 50 to 500 nM | 1000 to 10000 nM | B* (an IC50 ratio greater than or equal to 3 fold but lower than 10 fold between the IC50 in the HAP1 MTAP-intact cell line and the HAP1 MTAP-deleted cell line) | ≥ 5000 nM | A (a Ki ratio greater than or equal to 10 fold between the Ki in the presence of SAM and the Ki in the presence of MTA)
7 | O=C(NC[C@H](O)CN1CCc2c(ccc(OCc3cnco3)c2Cl)C1)c1ccnc(NC2CCC(F)C2)c1 (some centres unmarked) [Compound 322] | 50 to 500 nM | A (a Ki ratio greater than or equal to 10 fold between the Ki in the presence of SAM and the Ki in the presence of MTA) | ≥ 10000 nM | ≥ 5000 nM | 50 to 500 nM | ≥ 10000 nM | C* (an IC50 ratio of less than 3 fold between the IC50 in the HAP1 MTAP-intact cell line and the HAP1 MTAP-deleted cell line) | – | –
8 | Cc1ncoc1COc1ccc2c(c1)CCN(C[C@@H](O)CNC(=O)c1cccc(NC3CCC3)c1)C2 [Compound 283, (S)-3-(cyclobutylamino)-N-(2-hydroxy-3-(6-((4-methyloxazol-5-yl)methoxy)-3,4-dihydroisoquinolin-2(1H)-yl)propyl)benzamide] | 500 to 5000 nM | A (a Ki ratio greater than or equal to 10 fold between the Ki in the presence of SAM and the Ki in the presence of MTA) | < 1000 nM | ≥ 5000 nM | 500 to 5000 nM | < 1000 nM | C* (an IC50 ratio of less than 3 fold between the IC50 in the HAP1 MTAP-intact cell line and the HAP1 MTAP-deleted cell line) | – | –
9 | Cc1ncoc1COc1ccc2c(c1C)CCN(C[C@@H](O)CNC(=O)c1cccc(NC3CCC3)c1)C2 [Compound 488, 3-(cyclobutylamino)-N-[(2S)-2-hydroxy-3-{5-methyl-6-[(4-methyl-1,3-oxazol-5-yl)methoxy]-1,2,3,4-tetrahydroisoquinolin-2-yl}propyl]benzamide] | 50 to 500 nM | – | ≥ 10000 nM | – | 500 to 5000 nM | 1000 to 10000 nM | C* (an IC50 ratio of less than 3 fold between the IC50 in the HAP1 MTAP-intact cell line and the HAP1 MTAP-deleted cell line) | ≥ 5000 nM | A (a Ki ratio greater than or equal to 10 fold between the Ki in the presence of SAM and the Ki in the presence of MTA)
10 | CC(=O)N1CCC(Nc2cc(C(=O)NC[C@H](O)CN3CCc4cc(OCc5cnco5)ccc4C3)ncn2)CC1 [Compound 135, 6-[(1-acetyl-4-piperidyl)amino]-N-[(2S)-2-hydroxy-3-[6-(oxazol-5-ylmethoxy)-3,4-dihydro-1H-isoquinolin-2-yl]propyl]pyrimidine-4-carboxamide] | 50 to 500 nM | A (a Ki ratio greater than or equal to 10 fold between the Ki in the presence of SAM and the Ki in the presence of MTA) | 1000 to 10000 nM | ≥ 5000 nM | 50 to 500 nM | 1000 to 10000 nM | C* (an IC50 ratio of less than 3 fold between the IC50 in the HAP1 MTAP-intact cell line and the HAP1 MTAP-deleted cell line) | – | –
11 | CC(=O)N1CCC(Nc2cc(C(=O)NC[C@H](O)CN3CCc4c(ccc(OCc5ccnn5C)c4C)C3)ncn2)CC1 [Compound 203] | 500 to 5000 nM | A (a Ki ratio greater than or equal to 10 fold between the Ki in the presence of SAM and the Ki in the presence of MTA) | ≥ 10000 nM | ≥ 5000 nM | 500 to 5000 nM | ≥ 10000 nM | C* (an IC50 ratio of less than 3 fold between the IC50 in the HAP1 MTAP-intact cell line and the HAP1 MTAP-deleted cell line) | – | –
12 | O=C(NC[C@H](O)CN1CCc2c(ccc(OCc3cnco3)c2Br)C1)c1cc(NC2CCCC2)ncn1 [Compound 337] | 500 to 5000 nM | A (a Ki ratio greater than or equal to 10 fold between the Ki in the presence of SAM and the Ki in the presence of MTA) | ≥ 10000 nM | ≥ 5000 nM | 500 to 5000 nM | ≥ 10000 nM | C* (an IC50 ratio of less than 3 fold between the IC50 in the HAP1 MTAP-intact cell line and the HAP1 MTAP-deleted cell line) | – | –
